Test results published in US20090019923A1, “Method for measuring octanol-water distribution coefficients of surfactants” (Clariant International Ltd., priority 2007, published 2009).
Where “and” joins values, the source holds several entries; their conditions need not be identical. Equal entries are not always repeated.

Assay: octanol-water distribution coefficient by slow stirring, evaporation/re-dissolution and surface tension vs. concentration calibration curve
Settings: for conc. Caq (concentration in the aqueous layer): after equilibration with octanol, initial 1 g/L; for logP: initial 1 g/L in aqueous layer, residue in 0.2 M KCl, single samples of replicates A, B
Procedure: Aqueous surfactant solution is equilibrated with octanol. The concentration of surfactant in the aqueous phase after equilibration is determined from the surface tension using a calibration curve. Interference from octanol is prevented by first removing it by evaporation and re-dissolution. The concentration of surfactant in the octanol layer is calculated from the change in concentration in the aqueous layer. Alternatively an aliquot of the octanol layer can be evaporated and re-dissolved in water to determine the concentration directly via surface tension.
Preferably, equal or approximately equal volumes of water and octanol are used. The preferred method is stirring slowly for several hours. The minimum stirring time required will depend on the system and can, if necessary, be determined by running experiments with different stirring times. […] The stirring speed must be kept low enough for there to be two distinct phases during the whole course of the experiment. Other types of agitation (e.g. shaking, rolling, vibration) may also be used, provided they are gentle enough to avoid any mixing of the phases.
Evaporating an aliquot of the aqueous phase and re-dissolving the residue in water or electrolyte solution. This removes octanol, which is surface active and would therefore interefere with the subsequent concentration determination via surface tension. It is covenient to take an aliquot of between 1 and 10 mL and re-dissolve in a larger volume of water (20-500 mL).
The surface tension may be measured by any convenient method, for example, the plate, ring or bubble pressure methods. Preferably a method should be used which allows an equilibration time of several minutes e.g. the plate method.
The calibration curve is obtained by measuring the surface tension of the surfactant at various concentrations. Exactly the same procedure should be used as for the re-dissolved residue solution. If an electrolyte solution is used in the dilution step, it must also be used for the calibration curve.
P=Vaq(c0−caq)/(Voctcaq) (2)
P=Vaq(c0−caq)/(Voctcnon-micellised) (3) • For cmc<caq cnon-micellised=cmc • For cmc≧caq cnon-micellised=caq
Equilibration experiment: 100 mL of a 1 g/L aqueous solution of the surfactant and 100 mL octanol were placed in a conical flask. The two-phase system was stirred for eight hours on a magnetic stirrer. The stirring speed (100 rpm) was low enough for there to be two distinct layers. After the stirrer was switched off, the system was allowed to stand overnight. Then a 2 mL sample of the aqueous phase was placed in a tensiometer glass and evaporated to dryness in a drying cabinet. The residue was redissolved in 50 mL of 0.2 M KCl. The surface tension of this solution was measured with the Pt plate method. The solution was then diluted five times with 0.2 M KCl and the surface tension measured again. The concentration of surfactant was determined by comparison with a calibration curve. A duplicate experiment was run to check the reproducibility.
Equilibration experiment: 100 mL of a 1 g/L aqueous solution of the surfactant and 100 mL octanol were placed in a conical flask. The two-phase system was stirred for eight hours on a magnetic stirrer. The stirring speed (100 rpm) was low enough for there to be two distinct layers. After the stirrer was switched off, the system was allowed to stand overnight. Then a 2 mL sample of the aqueous phase was placed in a tensiometer glass evaporated to dryness in a drying cabinet. The residue was redissolved in 50 mL of 0.2 M KCl. The surface tension of this solution was measured with the Pt plate method. The concentration of surfactant was determined by comparison with a calibration curve.

conc. Caq (concentration in the aqueous layer) (dilution factor 25)	conc. Caq (concentration in the aqueous layer) (dilution factor 125)	logP (100 mL water/100 mL octanol, stirred 8 h, dilution factor 25)	logP (100 mL water/100 mL octanol, stirred 8 h, dilution factor 125)	logP mean (initial concentration in the aqueous layer 1 g/L, mean of all samples and dilutions)	Substance	Non-micellised surfactant cnon-micellised (aqueous layer at equilibrium, cmc greater than caq)	Equilibrium concentration in aqueous layer, caq (original concentration 1 g/L, 100 mL water/100 mL octanol, stirred 8 h)	Concentation in octanol layer, c0-caq (original concentration 1 g/L, from mass balance)
–	–	–	–	–	C10-C13 linear alkylbenzene sulfonate	0.16 g/L	0.16 g/L	840 µg/mL
550 µg/mL and 630 µg/mL and 600 µg/mL	570 µg/mL and 590 µg/mL and 630 µg/mL	−0.09 and −0.22 and −0.18	−0.12 and −0.15 and −0.22	−0.17	C22-amidoamine betaine	–	–	–
